In assay [1] the target is NAMPT (human, recombinant, C-terminally His-tagged) (Homo sapiens, UniProt P43490). Put plainly: Time-Resolved Fluorescence Resonance Energy Transfer (TR-FRET) Binding Assay of NAMPT. As to conditions: 6.8 nM NAMPT, 200 nM probe, equilibrated 3 hours, absence of substrates. The essentials: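 Recombinant C-terminally His-tagged human NAMPT (6.8 nM) incubated 3 h at room temperature with 200 nM Oregon Green 488–labelled nicotinamide-competitive probe and 1 nM Tb-anti-His antibody in HEPES pH 7.5, 2% DMSO. TR-FRET ratio Em520/Em495 normalized to controls; IC50 from four-parameter logistic fit.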
Background: In TR-FRET formats the signal depends on donor and acceptor labels being close together.

Assay [2] has as its target NAMPT (Homo sapiens, UniProt P43490). Put plainly: Time-Resolved Fluorescence Resonance Energy Transfer (TR-FRET) Binding Assay of NAMPT with PRPP. As to conditions: 2 nM NAMPT, 2 nM probe, 200 uM PRPP and 2.5 mM ATP, equilibrated 16 hours. The method in brief: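 Final mix: 2 nM NAMPT, 2 nM probe, 1 nM Tb-anti-His antibody, 200 uM PRPP, 2.5 mM ATP, 2% DMSO in 1× assay buffer. Equilibrated 16 hours before TR-FRET read, allowing possible enzymatic modification of compounds.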

Sequence of NAMPT (P43490 whole entry): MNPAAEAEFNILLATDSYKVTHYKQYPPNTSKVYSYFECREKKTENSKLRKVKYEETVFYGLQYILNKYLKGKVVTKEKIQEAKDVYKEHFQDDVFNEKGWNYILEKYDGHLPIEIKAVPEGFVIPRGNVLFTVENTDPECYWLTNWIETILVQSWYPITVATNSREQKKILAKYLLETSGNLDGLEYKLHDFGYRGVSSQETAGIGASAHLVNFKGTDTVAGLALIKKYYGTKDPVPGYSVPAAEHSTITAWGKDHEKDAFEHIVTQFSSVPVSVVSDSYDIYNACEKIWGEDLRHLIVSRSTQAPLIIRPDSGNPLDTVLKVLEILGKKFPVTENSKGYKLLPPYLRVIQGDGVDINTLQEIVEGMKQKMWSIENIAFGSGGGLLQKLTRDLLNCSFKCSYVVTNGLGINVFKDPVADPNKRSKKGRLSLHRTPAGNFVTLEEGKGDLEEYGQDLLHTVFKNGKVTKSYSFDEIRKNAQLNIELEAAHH
Sequence of NAMPT (human, recombinant, C-terminally His-tagged) (P43490 whole entry): as above

As for `O=C(Nc1ccc(OC2CCN(CC3CC3)CC2)cc1)C1CN(c2cccnc2)C1` [Example 74, N-(4-{[1-(cyclopropylmethyl)piperidin-4-yl]oxy}phenyl)-1-(pyridin-3-yl)azetidine-3-carboxamide], the half-inhibitory concentration (IC50) in assay [1] was 911 nM; in assay [2], 0.666 nM.

Take `CCCC(C)CN1CCC(Oc2ccc(NC(=O)C3CN(c4cccnc4)C3)cc2)CC1` (stereo not drawn) [Example 75, N-(4-{[1-(2-methylpentyl)piperidin-4-yl]oxy}phenyl)-1-(pyridin-3-yl)azetidine-3-carboxamide]: the IC50 in assay [1] was 1340 nM; in assay [2], 0.719 nM.

For the molecule `CC(C)CN1CCC(Oc2ccc(NC(=O)C3CN(c4cccnc4)C3)cc2)CC1` [Example 76, N-(4-{[1-(2-methylpropyl)piperidin-4-yl]oxy}phenyl)-1-(pyridin-3-yl)azetidine-3-carboxamide], the figures for the IC50 in assay [1] and in assay [2] were 1920 nM and 0.44 nM, respectively.

On to `CC(C)CCN1CCC(Oc2ccc(NC(=O)C3CN(c4cccnc4)C3)cc2)CC1` [Example 77, N-(4-{[1-(3-methylbutyl)piperidin-4-yl]oxy}phenyl)-1-(pyridin-3-yl)azetidine-3-carboxamide], for which the results for the IC50 in assay [1] and in assay [2] were 3010 nM and 0.832 nM, respectively.

For the molecule `CCC(CC)CN1CCC(Oc2ccc(NC(=O)C3CN(c4cccnc4)C3)cc2)CC1` [Example 78, N-(4-{[1-(2-ethylbutyl)piperidin-4-yl]oxy}phenyl)-1-(pyridin-3-yl)azetidine-3-carboxamide], the IC50 was determined as 265 nM in assay [1] and 0.632 nM in assay [2].

For `CC(C)(C)CN1CCC(Oc2ccc(NC(=O)C3CN(c4cccnc4)C3)cc2)CC1` [Example 79, N-(4-{[1-(2,2-dimethylpropyl)piperidin-4-yl]oxy}phenyl)-1-(pyridin-3-yl)azetidine-3-carboxamide], the figures for the IC50 in assay [1] and in assay [2] were 2690 nM and 0.824 nM, respectively.

Consider `CCC(C)CN1CCC(Oc2ccc(NC(=O)C3CN(c4cccnc4)C3)cc2)CC1` (stereo not drawn) [Example 80, N-(4-{[1-(2-methylbutyl)piperidin-4-yl]oxy}phenyl)-1-(pyridin-3-yl)azetidine-3-carboxamide], for which the IC50 in assay [1] worked out at 1600 nM; in assay [2], 0.686 nM.

As to `CCCN1CCC(Oc2ccc(NC(=O)C3CN(c4cccnc4)C3)cc2)CC1` [Example 81, N-{4-[(1-propylpiperidin-4-yl)oxy]phenyl}-1-(pyridin-3-yl)azetidine-3-carboxamide], the IC50 in assay [1] turned out to be 3720 nM; in assay [2] it was 1.13 nM.

Consider `O=C(Nc1ccc(OC2CCN(CCC3CC3)CC2)cc1)C1CN(c2cccnc2)C1` [Example 82, N-(4-{[1-(2-cyclopropylethyl)piperidin-4-yl]oxy}phenyl)-1-(pyridin-3-yl)azetidine-3-carboxamide], for which the values for the 50% inhibitory concentration (IC50) in assay [1] and in assay [2] were 955 nM and 0.526 nM, respectively.

As for `O=C(Nc1ccc(OC2CCN(CC3CCOC3)CC2)cc1)C1CN(c2cccnc2)C1` (stereo not drawn) [Example 83, 1-(pyridin-3-yl)-N-(4-{[1-(tetrahydrofuran-3-ylmethyl)piperidin-4-yl]oxy}phenyl)azetidine-3-carboxamide], the IC50 in assay [1] is 1210 nM; in assay [2], 0.503 nM.

On to `CCC(C)(C)CN1CCC(Oc2ccc(NC(=O)C3CN(c4cccnc4)C3)cc2)CC1` [Example 84, N-(4-{[1-(2,2-dimethylbutyl)piperidin-4-yl]oxy}phenyl)-1-(pyridin-3-yl)azetidine-3-carboxamide], for which the IC50 stood at 6070 nM in assay [1] and 1.81 nM in assay [2].

In the case of `CC(C)(O)C(=O)N1CCC(c2ccc(NC(=O)C3CN(c4ccnnc4)C3)cc2)CC1` [Example 85, N-{4-[1-(2-hydroxy-2-methylpropanoyl)piperidin-4-yl]phenyl}-1-(pyridazin-4-yl)azetidine-3-carboxamide], the 50% inhibitory concentration (IC50) is 32.2 nM in assay [1] and 17 nM in assay [2].

For `O=C(Nc1ccc(C2CCN(CC3CCCCC3)CC2)cc1)C1CN(c2cccnc2)C1` [Example 86, N-{4-[1-(cyclohexylmethyl)piperidin-4-yl]phenyl}-1-(pyridin-3-yl)azetidine-3-carboxamide], the 50% inhibitory concentration (IC50) in assay [1] amounted to 1260 nM; in assay [2], 0.833 nM.

Turning to `CC(C)(C)CCN1CCC(c2ccc(NC(=O)C3CN(c4cccnc4)C3)cc2)CC1` [Example 87, N-{4-[1-(3,3-dimethylbutyl)piperidin-4-yl]phenyl}-1-(pyridin-3-yl)azetidine-3-carboxamide], the IC50 was found to be 1390 nM in assay [1] and 1.27 nM in assay [2].

`O=C(Nc1ccc(C2CCN(CC3CCCC3)CC2)cc1)C1CN(c2cccnc2)C1` [Example 88, N-{4-[1-(cyclopentylmethyl)piperidin-4-yl]phenyl}-1-(pyridin-3-yl)azetidine-3-carboxamide]: the IC50 was 574 nM in assay [1] and 0.64 nM in assay [2].

On to `CCC(C)(C)CN1CCC(c2ccc(NC(=O)C3CN(c4cccnc4)C3)cc2)CC1` [Example 89, N-{4-[1-(2,2-dimethylbutyl)piperidin-4-yl]phenyl}-1-(pyridin-3-yl)azetidine-3-carboxamide], for which the 50% inhibitory concentration (IC50) in assay [1] amounted to 2000 nM; in assay [2] it was 0.647 nM.

Consider `CCCC(C)CN1CCC(c2ccc(NC(=O)C3CN(c4cccnc4)C3)cc2)CC1` (stereo not drawn) [Example 90, N-{4-[1-(2-methylpentyl)piperidin-4-yl]phenyl}-1-(pyridin-3-yl)azetidine-3-carboxamide], for which the half-maximal inhibitory concentration (IC50) in assay [1] came out at 1410 nM; in assay [2] it was 0.902 nM.

With `CCCCN1CCC(c2ccc(NC(=O)C3CN(c4cccnc4)C3)cc2)CC1` [Example 91, N-[4-(1-butylpiperidin-4-yl)phenyl]-1-(pyridin-3-yl)azetidine-3-carboxamide], the figures for the half-maximal inhibitory concentration (IC50) in assay [1] and in assay [2] were 992 nM and 0.868 nM, respectively.

Regarding `CCC(CC)CN1CCC(c2ccc(NC(=O)C3CN(c4cccnc4)C3)cc2)CC1` [Example 92, N-{4-[1-(2-ethylbutyl)piperidin-4-yl]phenyl}-1-(pyridin-3-yl)azetidine-3-carboxamide], the half-maximal inhibitory concentration (IC50) in assay [1] came out at 784 nM; in assay [2] it was 0.548 nM.

Turning to `CC(C)CCN1CCC(c2ccc(NC(=O)C3CN(c4cccnc4)C3)cc2)CC1` [Example 93, N-{4-[1-(3-methylbutyl)piperidin-4-yl]phenyl}-1-(pyridin-3-yl)azetidine-3-carboxamide], the half-inhibitory concentration (IC50) in assay [1] was 1220 nM; in assay [2], 1.25 nM.

Take `CC(C)CN1CCC(c2ccc(NC(=O)C3CN(c4cccnc4)C3)cc2)CC1` [Example 94, N-{4-[1-(2-methylpropyl)piperidin-4-yl]phenyl}-1-(pyridin-3-yl)azetidine-3-carboxamide]: the results for the IC50 in assay [1] and in assay [2] were 2270 nM and 1.03 nM, respectively.

Consider `CCCN1CCC(c2ccc(NC(=O)C3CN(c4cccnc4)C3)cc2)CC1` [Example 95, N-[4-(1-propylpiperidin-4-yl)phenyl]-1-(pyridin-3-yl)azetidine-3-carboxamide], for which the IC50 was found to be 1360 nM in assay [1] and 1.02 nM in assay [2].

Consider `COc1ccncc1N1CC(C(=O)Nc2ccc(C3CCN(C(=O)C(C)(C)O)CC3)cc2)C1` [Example 96, N-{4-[1-(2-hydroxy-2-methylpropanoyl)piperidin-4-yl]phenyl}-1-(4-methoxypyridin-3-yl)azetidine-3-carboxamide], for which the results for the IC50 in assay [1] and in assay [2] were 115 nM and 282 nM, respectively.

Consider `CC(C)(O)C(=O)N1CCC(c2ccc(NC(=O)C3CN(c4cnccc4C#N)C3)cc2)CC1` [Example 97, 1-(4-cyanopyridin-3-yl)-N-{4-[1-(2-hydroxy-2-methylpropanoyl)piperidin-4-yl]phenyl}azetidine-3-carboxamide], for which the IC50 in assay [1] amounted to 36.6 nM; in assay [2], 131 nM.

Consider `CCCCC(=O)N1CCC(c2ccc(NC(=O)C3CN(c4cccnc4)C3)cc2)CC1` [Example 98, N-[4-(1-pentanoylpiperidin-4-yl)phenyl]-1-(pyridin-3-yl)azetidine-3-carboxamide], for which the concentration for half-maximal inhibition (IC50) in assay [1] was 13 nM; in assay [2] it was 0.209 nM.

`CCC(C)CC(=O)N1CCC(c2ccc(NC(=O)C3CN(c4cccnc4)C3)cc2)CC1` (stereo not drawn) [Example 99, N-{4-[1-(3-methylpentanoyl)piperidin-4-yl]phenyl}-1-(pyridin-3-yl)azetidine-3-carboxamide]: the 50% inhibitory concentration (IC50) in assay [1] came to 13.5 nM; in assay [2] it was 0.169 nM.

Regarding `O=C(Nc1ccc(C2CCN(C(=O)CC3C[C@@H]4CC[C@H]3C4)CC2)cc1)C1CN(c2cccnc2)C1` (stereo partly drawn) [Example 100, N-(4-{1-[(1S,4R)-bicyclo[2.2.1]hept-2-ylacetyl]piperidin-4-yl}phenyl)-1-(pyridin-3-yl)azetidine-3-carboxamide], the concentration for half-maximal inhibition (IC50) stood at 30.6 nM in assay [1] and 0.497 nM in assay [2].

For the molecule `O=C(Nc1ccc(C2CCN(C(=O)CC3CCCC3)CC2)cc1)C1CN(c2cccnc2)C1` [Example 101, N-{4-[1-(cyclopentylacetyl)piperidin-4-yl]phenyl}-1-(pyridin-3-yl)azetidine-3-carboxamide], the results for the half-inhibitory concentration (IC50) in assay [1] and in assay [2] were 16.5 nM and 0.486 nM, respectively.

On to `CC1CC1C(=O)N1CCC(c2ccc(NC(=O)C3CN(c4cccnc4)C3)cc2)CC1` (stereo not drawn) [Example 102, N-(4-{1-[(2-methylcyclopropyl)carbonyl]piperidin-4-yl}phenyl)-1-(pyridin-3-yl)azetidine-3-carboxamide], for which the values for the half-maximal inhibitory concentration (IC50) in assay [1] and in assay [2] were 8.84 nM and 0.21 nM, respectively.

As to `O=C(Nc1ccc(C2CCN(C(=O)CN3CCOCC3)CC2)cc1)C1CN(c2cccnc2)C1` [Example 103, N-{4-[1-(morpholin-4-ylacetyl)piperidin-4-yl]phenyl}-1-(pyridin-3-yl)azetidine-3-carboxamide], the half-maximal inhibitory concentration (IC50) was found to be 56.2 nM in assay [1] and 0.493 nM in assay [2].

By IC50 is commonly meant the concentration that inhibits the measured activity by half.

(Values after patent US8975398B2, “NAMPT inhibitors” (AbbVie Inc., priority 2012, dated 2015).)
